Measurements taken from ChEMBL document CHEMBL1201862, “PubChem BioAssay data set” (2004).
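Values below derive from 48-hour exposures of cells grown in 96-well plates, with endpoints linearly interpolated between the two concentrations bracketing the appropriate inhibition level. GI50 = concentration required for 50% inhibition of growth.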 Active and inactive are the calls of the source. No stated cut-off is given here; in the data, active = GI50 up to about 1.1 µM and inactive = higher.

What was measured:
Experiment in all cases: NCI-60 cell line screen, 48 h
MOLT-4 = system: MOLT-4
M14 = system: M14
HOP-62 = system: HOP-62
IGROV-1 = system: IGROV-1
SK-MEL-5 = system: SK-MEL-5
EKVX = system: EKVX
SR = system: SR
NCI-H23 = system: NCI-H23
OVCAR-4 = system: OVCAR-4
RPMI-8226 = system: RPMI-8226
SN12C = system: SN12C
RXF 393 = system: RXF 393
COLO 205 = system: COLO 205
OVCAR-8 = system: OVCAR-8
SNB-75 = system: SNB-75
NCI-H226 = system: NCI-H226

Row | Compound | GI50 (MOLT-4) | GI50 (M14) | GI50 (HOP-62) | GI50 (IGROV-1) | GI50 (SK-MEL-5) | GI50 (EKVX) | GI50 (SR) | GI50 (NCI-H23) | GI50 (OVCAR-4) | GI50 (RPMI-8226) | GI50 (SN12C) | GI50 (RXF 393) | GI50 (COLO 205) | GI50 (OVCAR-8) | GI50 (SNB-75) | GI50 (NCI-H226)
1 | NC1(CCCCCCCCCCC(=O)O)CNCCNCCNCCNC1 | 30.2 µM (inactive) | 75.3 µM (inactive) | 23.1 µM (inactive) | 26.9 µM (inactive) | 38.9 µM (inactive) | 94.6 µM (inactive) | 22.7 µM (inactive) | > 100 µM (inactive) | 30.9 µM (inactive) | 37.4 µM (inactive) | 23.8 µM (inactive) | 27.7 µM (inactive) | 15.6 µM (inactive) | 67.3 µM (inactive) | – | –
2 | O=C(Cc1nc2ccccc2s1)NC12CC3CC(CC(C3)C1)C2 | > 100 µM (inactive) | > 100 µM (inactive) | > 100 µM (inactive) | – | – | > 100 µM (inactive) | > 100 µM (inactive) | > 100 µM (inactive) | > 100 µM (inactive) | – | > 100 µM (inactive) | – | – | > 100 µM (inactive) | > 100 µM (inactive) | > 100 µM (inactive)
3 | CCc1c(C)[nH]c2c1/C(=N/N=C1\CCCc3[nH]c(C)c(CC)c31)CCC2 | 12.8 µM (inactive) | 20.7 µM (inactive) | > 100 µM (inactive) | 20 µM (inactive) | 14.2 µM (inactive) | 33 µM (inactive) | – | 18.5 µM (inactive) | 18.1 µM (inactive) | 7.67 µM (inactive) | 29.2 µM (inactive) | 22.6 µM (inactive) | 17.9 µM (inactive) | 25.8 µM (inactive) | 20.8 µM (inactive) | 17.6 µM (inactive)
4 | Cc1ccc(/N=C2\N=C(N3CC(C)OC(C)C3)c3ccccc32)cc1 (centres undefined) | 20.1 µM (inactive) | 19.3 µM (inactive) | 37.9 µM (inactive) | 27.5 µM (inactive) | 23.6 µM (inactive) | 32.6 µM (inactive) | – | 28.5 µM (inactive) | 18.1 µM (inactive) | 27.2 µM (inactive) | 34.5 µM (inactive) | 12.6 µM (inactive) | 40.3 µM (inactive) | 33.4 µM (inactive) | 27.9 µM (inactive) | 29 µM (inactive)
5 | CN(C)CCNC(=O)c1cccc2[nH]c(-c3cccnc3)nc12 | 25.8 µM (inactive) | 20.9 µM (inactive) | 18.5 µM (inactive) | 32.5 µM (inactive) | 16.9 µM (inactive) | 22.8 µM (inactive) | – | 18.8 µM (inactive) | 29.3 µM (inactive) | – | 18.2 µM (inactive) | 16.9 µM (inactive) | 14.5 µM (inactive) | 17.5 µM (inactive) | 20.9 µM (inactive) | 22.4 µM (inactive)
6 | CCOC(=O)NC(=O)c1cn(CCN2CCN(C(=O)CNC(=O)CNC(=O)Cn3cc(C(=O)NC(=O)OCC)c(=O)[nH]c3=O)CC2)c(=O)[nH]c1=O | > 100 µM (inactive) | > 100 µM (inactive) | > 100 µM (inactive) | – | – | – | > 100 µM (inactive) | > 100 µM (inactive) | – | – | > 100 µM (inactive) | – | > 100 µM (inactive) | > 100 µM (inactive) | > 100 µM (inactive) | –
7 | COC(=O)/C(=N\NC(N)=S)C(C#N)c1ccccc1 (centres undefined) | > 100 µM (inactive) | > 100 µM (inactive) | > 100 µM (inactive) | > 100 µM (inactive) | > 100 µM (inactive) | > 100 µM (inactive) | – | > 100 µM (inactive) | > 100 µM (inactive) | > 100 µM (inactive) | > 100 µM (inactive) | > 100 µM (inactive) | > 100 µM (inactive) | > 100 µM (inactive) | 19 µM (inactive) | > 100 µM (inactive)
8 | Cn1c(=O)c2c(nc3n2CCC(=O)N3)n(C)c1=O | > 100 µM (inactive) | – | > 100 µM (inactive) | > 100 µM (inactive) | > 100 µM (inactive) | > 100 µM (inactive) | > 100 µM (inactive) | > 100 µM (inactive) | > 100 µM (inactive) | – | > 100 µM (inactive) | > 100 µM (inactive) | > 100 µM (inactive) | > 100 µM (inactive) | – | > 100 µM (inactive)
9 | C=C1C(=O)C23C(CC(OC(C)=O)C1[C@@H]2OC(C)=O)C1(C)C(OC(C)=O)CCC(C)(C)C1C[C@@H]3OC(C)=O (some centres undefined) | 0.365 µM (active) | 1.56 µM (inactive) | 3.14 µM (inactive) | 1.45 µM (inactive) | 1.84 µM (inactive) | 3.31 µM (inactive) | 1.57 µM (inactive) | – | 1.91 µM (inactive) | 1.48 µM (inactive) | 1.46 µM (inactive) | 0.237 µM (active) | – | 0.418 µM (active) | 1.52 µM (inactive) | 1.69 µM (inactive)
10 | CCCCCCCCCCCCSC(=S)c1c(C)[nH]n(-c2ccccc2)c1=O | 6.61 µM (inactive) | 13.4 µM (inactive) | 5.16 µM (inactive) | 14.6 µM (inactive) | 5.58 µM (inactive) | 19.1 µM (inactive) | – | 13.3 µM (inactive) | 8.36 µM (inactive) | 11.2 µM (inactive) | 8.28 µM (inactive) | 10.3 µM (inactive) | 15.3 µM (inactive) | 14 µM (inactive) | – | 14.9 µM (inactive)
